Source: ChEMBL document CHEMBL1909046, “DrugMatrix in vitro pharmacology data”

What was measured:
[1] = biological target: Beta-1 adrenergic receptor (Homo sapiens, UniProt P08588); experiment: DRUGMATRIX: Adrenergic beta1 radioligand binding (ligand: [125I] Cyanopindolol); type: cell membranes, CHO-K1, Membrane; conditions: cho-k1; Not Active = under 50% inhibition at 10 µM
[2] = biological target: T1, Neuropeptide Y receptor type 2 (Homo sapiens, UniProt P49146); type: cell membranes, Membrane; conditions: kan-ts; note: in other assays of this panel Not Active means under 50% inhibition at 10 µM
T1 sequence (P49146 whole entry): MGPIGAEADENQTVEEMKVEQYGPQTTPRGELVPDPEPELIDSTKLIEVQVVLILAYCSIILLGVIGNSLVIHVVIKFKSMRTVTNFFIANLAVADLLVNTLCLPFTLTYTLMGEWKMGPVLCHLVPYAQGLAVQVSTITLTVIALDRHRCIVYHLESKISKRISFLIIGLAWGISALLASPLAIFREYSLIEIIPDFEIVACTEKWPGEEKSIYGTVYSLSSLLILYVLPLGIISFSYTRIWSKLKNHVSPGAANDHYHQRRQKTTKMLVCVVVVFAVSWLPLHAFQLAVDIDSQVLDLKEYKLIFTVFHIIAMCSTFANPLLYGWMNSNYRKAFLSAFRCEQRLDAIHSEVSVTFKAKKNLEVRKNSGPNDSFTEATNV

[3] = biological target: T2, Nitric oxide synthase, inducible (Mus musculus, UniProt P29477); design: species or system Escherichia coli;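 note: inhibition of iNOS enzyme activity measured with L-arginine as substrate; in other assays of this panel Not Active means under 50% inhibition at 10 µM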
T2 sequence (P29477 whole entry): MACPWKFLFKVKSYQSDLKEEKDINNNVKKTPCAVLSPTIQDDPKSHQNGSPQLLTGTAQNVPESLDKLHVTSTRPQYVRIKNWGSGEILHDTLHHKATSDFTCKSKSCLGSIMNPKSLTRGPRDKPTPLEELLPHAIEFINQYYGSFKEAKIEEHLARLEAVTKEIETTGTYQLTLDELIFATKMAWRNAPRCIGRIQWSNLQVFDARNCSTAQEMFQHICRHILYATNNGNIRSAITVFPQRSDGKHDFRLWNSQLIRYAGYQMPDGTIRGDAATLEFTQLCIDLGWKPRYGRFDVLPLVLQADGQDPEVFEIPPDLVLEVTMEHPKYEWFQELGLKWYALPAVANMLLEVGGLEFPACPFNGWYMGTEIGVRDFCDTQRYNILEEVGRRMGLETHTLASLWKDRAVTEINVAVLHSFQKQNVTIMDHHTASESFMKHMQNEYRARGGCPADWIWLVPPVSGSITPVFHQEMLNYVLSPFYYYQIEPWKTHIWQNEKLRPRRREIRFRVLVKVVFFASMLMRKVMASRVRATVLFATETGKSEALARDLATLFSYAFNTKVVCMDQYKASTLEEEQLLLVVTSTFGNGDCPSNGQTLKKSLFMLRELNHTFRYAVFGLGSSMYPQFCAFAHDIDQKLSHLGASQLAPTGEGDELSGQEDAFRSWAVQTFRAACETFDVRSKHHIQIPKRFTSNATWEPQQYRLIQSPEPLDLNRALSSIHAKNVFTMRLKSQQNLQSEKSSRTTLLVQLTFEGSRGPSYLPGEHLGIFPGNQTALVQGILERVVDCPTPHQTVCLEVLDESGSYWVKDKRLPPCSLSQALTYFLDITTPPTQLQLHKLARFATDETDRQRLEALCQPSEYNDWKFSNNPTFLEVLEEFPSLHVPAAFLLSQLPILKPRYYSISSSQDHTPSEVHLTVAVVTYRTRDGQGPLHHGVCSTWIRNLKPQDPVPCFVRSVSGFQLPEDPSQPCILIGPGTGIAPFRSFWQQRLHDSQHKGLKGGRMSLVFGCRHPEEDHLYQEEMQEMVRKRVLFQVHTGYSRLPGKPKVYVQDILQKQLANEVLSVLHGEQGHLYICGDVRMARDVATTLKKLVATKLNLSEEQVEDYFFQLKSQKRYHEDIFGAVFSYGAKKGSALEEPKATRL

[4] = biological target: T3, Receptor-type tyrosine-protein phosphatase C (Homo sapiens, UniProt P08575); design: species or system Escherichia coli;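 note: inhibition of CD45 enzyme activity measured using DiFMUP as substrate; in other assays of this panel Not Active means under 50% inhibition at 10 µM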
T3 sequence (P08575 whole entry): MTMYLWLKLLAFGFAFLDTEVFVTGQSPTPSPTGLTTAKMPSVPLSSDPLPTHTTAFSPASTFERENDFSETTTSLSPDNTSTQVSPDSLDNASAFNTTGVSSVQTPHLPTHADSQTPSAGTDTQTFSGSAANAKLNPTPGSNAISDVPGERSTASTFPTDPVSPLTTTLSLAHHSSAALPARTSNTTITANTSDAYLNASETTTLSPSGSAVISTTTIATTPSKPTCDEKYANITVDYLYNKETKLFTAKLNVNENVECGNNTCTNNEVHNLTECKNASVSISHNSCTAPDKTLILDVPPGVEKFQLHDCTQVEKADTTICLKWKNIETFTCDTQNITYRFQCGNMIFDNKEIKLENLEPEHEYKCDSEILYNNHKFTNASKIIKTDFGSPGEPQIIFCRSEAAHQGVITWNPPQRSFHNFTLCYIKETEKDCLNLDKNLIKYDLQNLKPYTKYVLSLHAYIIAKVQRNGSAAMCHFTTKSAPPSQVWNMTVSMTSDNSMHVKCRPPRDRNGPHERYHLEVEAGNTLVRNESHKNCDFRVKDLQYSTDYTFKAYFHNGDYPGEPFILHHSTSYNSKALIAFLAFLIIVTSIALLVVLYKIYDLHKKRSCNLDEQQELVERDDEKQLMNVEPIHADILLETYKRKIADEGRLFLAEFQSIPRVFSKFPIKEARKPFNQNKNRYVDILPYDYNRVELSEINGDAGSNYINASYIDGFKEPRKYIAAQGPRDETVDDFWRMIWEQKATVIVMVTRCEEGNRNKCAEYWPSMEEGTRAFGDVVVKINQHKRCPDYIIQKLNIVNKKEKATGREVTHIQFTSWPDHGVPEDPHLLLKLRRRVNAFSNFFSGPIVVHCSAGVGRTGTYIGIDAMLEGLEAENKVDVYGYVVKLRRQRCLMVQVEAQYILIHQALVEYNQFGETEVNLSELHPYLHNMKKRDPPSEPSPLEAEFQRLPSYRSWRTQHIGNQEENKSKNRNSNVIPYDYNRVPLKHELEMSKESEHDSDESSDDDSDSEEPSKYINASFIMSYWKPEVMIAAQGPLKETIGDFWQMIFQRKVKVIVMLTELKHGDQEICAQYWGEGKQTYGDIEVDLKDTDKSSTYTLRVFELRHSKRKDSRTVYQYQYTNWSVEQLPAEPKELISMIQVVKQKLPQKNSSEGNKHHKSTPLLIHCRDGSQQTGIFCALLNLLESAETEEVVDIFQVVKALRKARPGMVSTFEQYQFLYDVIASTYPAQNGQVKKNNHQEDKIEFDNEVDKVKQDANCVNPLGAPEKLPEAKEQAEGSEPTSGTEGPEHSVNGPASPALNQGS

Beta-1 adrenergic receptor, sequence (P08588 whole entry): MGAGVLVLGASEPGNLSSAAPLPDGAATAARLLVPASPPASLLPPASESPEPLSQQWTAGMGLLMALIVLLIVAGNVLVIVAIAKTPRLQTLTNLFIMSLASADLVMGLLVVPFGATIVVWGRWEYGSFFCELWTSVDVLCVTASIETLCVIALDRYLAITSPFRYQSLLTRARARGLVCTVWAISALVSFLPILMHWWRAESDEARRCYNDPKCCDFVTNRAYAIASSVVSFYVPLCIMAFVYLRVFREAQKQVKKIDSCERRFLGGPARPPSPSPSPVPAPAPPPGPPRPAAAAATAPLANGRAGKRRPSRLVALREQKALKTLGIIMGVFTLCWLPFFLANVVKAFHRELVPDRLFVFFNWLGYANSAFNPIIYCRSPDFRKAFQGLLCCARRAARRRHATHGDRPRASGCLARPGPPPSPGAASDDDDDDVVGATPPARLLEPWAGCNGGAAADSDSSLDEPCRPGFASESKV

CC[C@@]1(O)C(=O)OCc2c1cc1n(c2=O)Cc2cc3c(CN(C)C)c(O)ccc3nc2-1 [TOPOTECAN]
Not Active: IC50 [1] | IC50 [2] | IC50 [3] | IC50 [4]

C#C[C@]1(O)CC[C@H]2[C@@H]3[C@H](C)CC4=C(CCC(=O)C4)[C@H]3CC[C@@]21C [TIBOLONE]
Not Active: IC50 [1] | IC50 [2] | IC50 [3] | IC50 [4]

Oc1ccc(/C=C/c2cc(O)cc(O)c2)cc1 [RESVERATROL]
Not Active: IC50 [1] | IC50 [2] | IC50 [3] | IC50 [4]

Cc1ccc(Cl)c(Nc2ccccc2C(=O)O)c1Cl [MECLOFENAMIC ACID]
Not Active: IC50 [1] | IC50 [2] | IC50 [3] | IC50 [4]

Cc1ccnc(NS(=O)(=O)c2ccc(N)cc2)n1 [SULFAMERAZINE]
Not Active: IC50 [1] | IC50 [2] | IC50 [3] | IC50 [4]

CCOc1cc(N)c(Cl)cc1C(=O)NCC1CN(Cc2ccc(F)cc2)CCO1 (stereo not given) [MOSAPRIDE]
Not Active: IC50 [1] | IC50 [2] | IC50 [3] | IC50 [4]

C[C@]12CCC(=O)C[C@@H]1CC[C@@H]1[C@@H]2CC[C@]2(C)[C@@H](O)CC[C@@H]12 [STANOLONE]
Not Active: IC50 [1] | IC50 [2] | IC50 [3] | IC50 [4]

C[N+]1(C)[C@@H]2C[C@@H](OC(=O)[C@H](CO)c3ccccc3)C[C@H]1[C@@H]1O[C@@H]12.[Br-] [METHSCOPOLAMINE BROMIDE]
Not Active: IC50 [1] | IC50 [2] | IC50 [3] | IC50 [4]

OC[C@@H](O)[C@@H](O)[C@H](O)[C@H](O)CO [MANNITOL]
Not Active: IC50 [1] | IC50 [2] | IC50 [3] | IC50 [4]

O=C(O)c1cc(/N=N/c2ccc(S(=O)(=O)Nc3ccccn3)cc2)ccc1O [SULFASALAZINE]
Not Active: IC50 [1] | IC50 [2] | IC50 [3] | IC50 [4]

CC1=C(/C=C/C(C)=C/C=C/C(C)=C/C(=O)O)C(C)(C)CCC1 [TRETINOIN]
Not Active: IC50 [1] | IC50 [2] | IC50 [3] | IC50 [4]

CC[C@H](C)C(=O)O[C@H]1CCC=C2C=C[C@H](C)[C@H](CC[C@@H]3C[C@@H](O)CC(=O)O3)[C@H]21 [MEVASTATIN]
Not Active: IC50 [1] | IC50 [2] | IC50 [3] | IC50 [4]

CCN(CC)C(=S)SSC(=S)N(CC)CC
Not Active: IC50 [1] | IC50 [2] | IC50 [3] | IC50 [4]

O=[As][O-].[Na+] [SODIUM ARSENITE]
Not Active: IC50 [1] | IC50 [2] | IC50 [3] | IC50 [4]

CCN(CC)N=O [N-NITROSODIETHYLAMINE]
Not Active: IC50 [1] | IC50 [2] | IC50 [3] | IC50 [4]

Nc1nc(N)c2nc(-c3ccccc3)c(N)nc2n1
Not Active: IC50 [1] | IC50 [2] | IC50 [3] | IC50 [4]

CCN(CC)CCNC(=O)c1cc(Cl)c(N)cc1OC [METOCLOPRAMIDE]
Not Active: IC50 [1] | IC50 [2] | IC50 [3] | IC50 [4]

Cc1cc2c(s1)Nc1ccccc1N=C2N1CCN(C)CC1 [OLANZAPINE]
Not Active: IC50 [1] | IC50 [2] | IC50 [3] | IC50 [4]

Cc1nnc(NS(=O)(=O)c2ccc(N)cc2)s1 [SULFAMETHIZOLE]
Not Active: IC50 [1] | IC50 [2] | IC50 [3] | IC50 [4]

CC#C[C@]1(O)CC[C@H]2[C@@H]3CCC4=CC(=O)CCC4=C3[C@@H](c3ccc(N(C)C)cc3)C[C@@]21C [MIFEPRISTONE]
Not Active: IC50 [1] | IC50 [2] | IC50 [3] | IC50 [4]

CS(=O)(=O)c1ccc(C2=C(c3ccccc3)C(=O)OC2)cc1 [ROFECOXIB]
Not Active: IC50 [1] | IC50 [2] | IC50 [3] | IC50 [4]

CC1(C)[C@H](C(=O)O)N2C(=O)C[C@H]2S1(=O)=O [SULBACTAM]
Not Active: IC50 [1] | IC50 [2] | IC50 [3] | IC50 [4]

CO[C@@H]1[C@@H](OC)[C@H](C)[C@@](O)(CC(=O)O)O[C@H]1[C@H](C)[C@H]1O[C@@]2(CC[C@@](C)([C@H]3CC[C@@](C)([C@@H]4O[C@@H]([C@H]5O[C@](C)(O)[C@H](C)C[C@@H]5C)C[C@@H]4O[C@@H]4C[C@H](OC)[C@@H](OC)[C@H](C)O4)O3)O2)C[C@H](O)[C@H]1C.N [MADURAMICIN]
Not Active: IC50 [1] | IC50 [2] | IC50 [3] | IC50 [4]

CNCCCC12CCC(c3ccccc31)c1ccccc12 [MAPROTILINE]
Not Active: IC50 [1] | IC50 [2] | IC50 [3] | IC50 [4]

LEAD(IV) ACETATE
Not Active: IC50 [1] | Ki [1] | IC50 [2] | Ki [2] | IC50 [3] | Ki [3] | IC50 [4] | Ki [4]

O=C(c1ccccc1)c1ccc2n1CCC2C(=O)O (stereo not given) [KETOROLAC]
Not Active: IC50 [1] | IC50 [2] | IC50 [3] | IC50 [4]

CC[C@H](C)[C@@H](CO[C@@H](Cc1ccccc1)C(=O)N[C@@H](CCS(C)(=O)=O)C(=O)OC(C)C)NC[C@@H](N)CS
Not Active: IC50 [1] | IC50 [2] | IC50 [3] | IC50 [4]

CN(C)CCC=C1c2ccccc2COc2ccccc21 [DOXEPIN]
Not Active: IC50 [2] | IC50 [3] | IC50 [4]
